Measurements: patent US20130309306A1, “INTRAPULMONARY BENZODIAZEPINE FOR THE TREATMENT AND PREVENTION OF SEIZURES” (priority 2010, published 2013)
Marks after values point to notes of the source that are not given here.

Test system: PTZ-induced convulsions
Test: PTZ-induced convulsions in mice (PTZ 80 mg/kg i.p.)
Format: in vivo
Description: Male NIH Swiss mice (22-30 g) were kept in a vivarium under controlled environmental conditions (temperature, 22-26° C.; humidity, 40-50%) with an artificial 12-h light/dark cycle. Wood chips were used in all cages. Experiments were performed during the light phase of the light/dark cycle after a minimum 30-min period of acclimation to the experimental room. The animal facilities were fully accredited by the Association for Assessment and Accreditation of Laboratory Animal Care. All studies were performed under protocols approved by the Animal Care and Use Committee of the University of California, Davis in strict compliance with the Guide for the Care and Use of Laboratory Animals of the National Research Council (National Academy Press, Washington, D.C.).
Intratracheal administration of midazolam was carried out as described by Oka et al. (2006). In brief, mice were briefly anesthetized using isoflurane anesthesia (4% isoflurane). The animals were immediately placed on a surgical board held at a 60° angle. The animal's mouth was kept open by hanging the upper incisors on a hook to facilitate detection of the epiglottis. An operating light was used to illuminate the view of the pharynx after displacement of the tongue with a spatula. A syringe fitted with a blunted 24-gauge/25-mm was pushed against the soft palate to enter the trachea past the vocal cords. When the tracheal cartilage ring is felt, the needle is considered properly placed within the tracheal lumen. The needle was inserted almost to the bottom of the trachea. When the animals began to show signs that the anesthesia was waning, the liquid sample was gently injected at a dose volume of 0.25 ml/kg. After the injection of solution, air (1 ml syringe) was blown inside the lungs to uniformly distribute the drug in the lungs. Following the injection, the needle was gently removed and animal was held vertically for 2 min to facilitate the downward movement of liquid in the lungs. The animal was allowed 10 min to recover fully from the anesthesia as confirmed by normal spontaneous exploratory behavior. Seizure testing then commenced. For each of the seizure tests, we verified that there was no residual effect of the anesthetic on responsiveness.
PTZ was administered intraperitoneally at a dose of 80 mg/kg, which causes clonic convulsions in >97% of mice (Dhir et al., 2006). […] The time of onset of myoclonic jerks, clonus and tonic extension; and the incidence of lethality was recorded.
Results are expressed as mean±S.E.M.; the significance of the difference in the responses of treatment groups with respect to control is based on one-way analysis of variance (ANOVA) followed by specific post-hoc comparisons using Tukey's test. Differences were considered statistically significant when the probability of error was less than 0.05 (P<0.05). Control values in the threshold tests were the mean threshold values for vehicle-treated groups.

[1] = intraperitoneal 100 μg/kg, pretreatment 10 min
[2] = intraperitoneal 500 μg/kg, pretreatment 10 min
[3] = intraperitoneal 750 μg/kg, pretreatment 10 min
[4] = intraperitoneal 1000 μg/kg, pretreatment 10 min
[5] = intratracheal 12.5 μg/kg, pretreatment 10 min
[6] = intratracheal 25 μg/kg, pretreatment 7 min
[7] = intratracheal 25 μg/kg, pretreatment 10 min
[8] = intratracheal 50 μg/kg, pretreatment 7 min
[9] = intratracheal 50 μg/kg, pretreatment 10 min
[10] = intratracheal 100 μg/kg, pretreatment 7 min
[11] = intratracheal 100 μg/kg, pretreatment 10 min
[12] = intratracheal 200 μg/kg, pretreatment 10 min

Cc1ncc2n1-c1ccc(Cl)cc1C(c1ccccc1F)=NC2 [Midazolam, midazolam]
33.33* percent: Percent showing clonus [3]
66.66* percent: Percent showing myoclonic jerks [8] | Percent showing clonus [9]
0* percent: Mortality [2] | Percent showing extensor [2] | Mortality [3] | Percent showing extensor [3] | Mortality [4] | Percent showing clonus [4] | Percent showing extensor [4] | Mortality [6] | Percent showing extensor [6] | Mortality [8] | Percent showing extensor [8] | Mortality [10] | Percent showing clonus [10] | Percent showing extensor [10] | Percent showing myoclonic jerks [10] | Mortality [11] | Percent showing extensor [11] | Mortality [12] | Percent showing clonus [12] | Percent showing extensor [12] | Percent showing myoclonic jerks [12]
83.33%: Percent showing clonus [2] | Percent showing myoclonic jerks [3] | Mortality [5] | Percent showing extensor [5] | Percent showing clonus [6] | Percent showing myoclonic jerks [9]
100%: Percent showing clonus [1] | Percent showing myoclonic jerks [1] | Percent showing myoclonic jerks [2] | Percent showing clonus [5] | Percent showing myoclonic jerks [5] | Percent showing myoclonic jerks [6] | Percent showing clonus [7] | Percent showing myoclonic jerks [7]
66.67* percent: Mortality [1] | Percent showing extensor [1]
16.66* percent: Mortality [9] | Percent showing extensor [9]
50* percent: Percent showing myoclonic jerks [4] | Mortality [7] | Percent showing extensor [7] | Percent showing clonus [8] | Percent showing clonus [11] | Percent showing myoclonic jerks [11]
